Assay [1] relates to PC3 xenograft. Description: Xenograft tumor growth in nude mice, prostate cancer PC3. Format: in vivo. The note with it: Panel N, 8 weeks, 5 μg/day s.c. How it is done: (§1) The peptides' activity was compared with GHRH antagonist MIA-602. All statistical analyzses were performed from comparing GHRA antagonists to non-treated tumor (control).
(§2) Peptides and chemicals. GHRH antagonists MIA-602 and AVR-GHRH antagonists (see Table 2 above) were synthesized by solid phase methods and purified by HPLC. The peptides were dissolved in DMSO and further diluted in 10% 1, 2-propanediol. The final concentration of peptides was 50 µg/ml in 10% 1, 2-propanediol containing 0.1% of DMSO.
(§3) Cell culture. Human cancer cell lines including pancreatic (PANC-1 and CFPAC-1), lung (HCC827 and H460), stomach (NCI-N87), prostate (PC3), brest (MX-1 and HCC-1806), colorectal (HT-29), and ovarian (SK-OV-3 and OVCAR-3) were obtained from the American Type Culture Collection (ATCC) and cultured at 37° C. in a humidified 95% air/5% CO2 atmosphere in the medium recommended by ATCC.
(§4) Xenograft models of human cancers in nude mice. Female athymic (NCr nu/nu) nude mice, 5-to 6-weeks-old, obtained from the Envigo labs (Tampa, FL), were housed in laminar airflow cabinets under pathogen-free conditions with a 12-h light/12-h dark schedule, and were fed autoclaved standard chow and water. To generate mice with xenografted tumors, tumor xenografts were initiated by subcutaneous (s.c.) injection of […] human cancer cells into female nude mice. After about 4 weeks the resulting tumors were dissected and collected after removing necrosis tissues. The tumors were then cut into particles with size of ˜3 mm3 and transplanted s.c. by trocar needle into experimental animals. When tumors grew to the size of 50-60 mm3 (by volume), mice were randomized into groups and treated daily for 4-8 weeks by subcutaneous administration of 5 μg of GHRH antagonists MIA-602 or AVR-compounds (2-10 μg as indicated), or vehicle solutions (0.1% DMSO in 10% 1, 2-propanediol) respectively. Tumor sizes were measured weekly.
Statistical analysis. One-way ANOVA followed by Bonferroni comparison were performed. Data are expressed as Mean±SEM. […]

The subject of assay [2] is C57Bl/6J mice treated with bleomycin. Description: Bleomycin lung injury model, lung hydroxyproline assay. Format: in vivo, mouse. How it is done: (§5) Experimental animals. 8-week old C57Bl/6J male mice (The Jackson Laboratory, Bar Harbor, ME) were used in these experiments. Mice weighed about 26 grams at the start. Mice were randomly allocated to the experimental groups and housed in identical filter top cages in a ventilated rack. Mice were exposed to a 12-hour light/dark cycle and had free access to standard laboratory chow and water.
(§6) Bleomycin and GHRH-R antagonist treatment. Mice were treated with 0.8 units of bleomycin (Bleomycin for Injection USP, Hospira, Lake Forest, IL) intraperitoneally (IP) on days 1, 3, 7, 10, 14 and 21 (Collins S, Chan-Li Y, Oh M, Vigeland C, Limjunyawong N, Mitzner W, Powell J D, Horton M R (2016). JCI Insight 1(4):1-13). Mice (randomly assigned) were simultaneously treated subcutaneously (sc) with MIA-602 (5 μg/day) or its vehicle (100 μL/day). MIA-602 was dissolved in DMSO (ACS grade; Sigma-Aldrich) and diluted 1:500 in normal saline for daily sc injection on days 0-21.
(§7) Tissue preparations. Mice were killed by CO2 inhalation before any treatment, or on days 14 or 28 for micro-CT scans of lungs and harvesting of lung tissue (Vande Velde G, Poelmans J, De Langhe E, Hillen A, Vanoirbeek J, Himmelreich U, Lories R (2016). Dis Model Mech 9:91). […]
Hydroxyproline assay. […] Hydroxyproline was measured colorimetrically (560 nm) after hydrolysis using an assay kit (MAK008, Sigma-Aldrich, St. Louis, MO). […]

Assay [3] shares this test system. Kind of assay: Bleomycin lung injury model, micro-CT of lungs. The note with it: bleomycin plus MIA-602. Format: in vivo, mouse. How it is done: as §5, §6, §7
Micro-CT. Mice in each group were assessed by micro-CT scans (Bruker SkyScan 1176 Low Dose Micro-CT, Knotich, Belgium) of the lungs after CO2 inhalation. […]

Assay [4] concerns HT-29 xenograft. Kind of assay: Xenograft tumor growth in nude mice, colon cancer HT-29. The class given is in vivo. The note with it: Panel G, 6 weeks, 5 μg/day s.c. How it is done: as §1, §2, §3, §4
Statistical analysis. One-way ANOVA followed by Bonferroni comparison were performed. Data are expressed as Mean±SEM. To determine statistical significance between animal groups, two-tailed Student's t-test was conducted. Differences were considered significant when p<0.05.
Results. […] FIG. 1A-N represents in vivo inhibition of tumor growth during the treatment with GHRH antagonist MIA-602 and selected AVR antagonists in nude mice xenografted with various human tumors including pancreatic cancer PANC-1 (FIG. 1A) and CFPAC-1 (FIG. 1I); lung cancer HCC827 (FIGS. 1B, C) and H460 (FIG. 1H); stomach cancer N87 (FIGS. 1D-F); colon cancer HT-29 (FIG. 1G); breast cancer MX-1 and HCC-1806 (FIGS. 1J, K); ovarian cancer SK-OV-3 and OVACAR-3 (FIGS. 1L, M) and prostate cancer PC3 (FIG. 1N). See also Table 5.

One compound from patent publication US11993640B2, “Treating inflammatory lung disease” (United States Government as represented by the Department …, priority 2019, dated 2024) can be followed below.

Non-standard residues stand in square brackets, D forms with d. Residues, ends and D or L forms follow the SMILES beside them. *: point of attachment. Phe(F5) = N[C@@H](Cc1c(F)c(F)c(F)c(F)c1F)C(=O)O; hArg = N=C(N)NCCCC[C@H](N)C(=O)O; 12Ado = NCCCCCCCCCCCC(=O)O; Nle = CCCC[C@H](N)C(=O)O; Orn = NCCC[C@H](N)C(=O)O; Abu = CC[C@H](N)C(=O)O; PhAc = O=C(Cc1ccccc1)*

Turning to `CCCC[C@H](NC(=O)[C@@H](NC(=O)[C@H](CC(=O)O)NC(=O)[C@H](CCC(N)=O)NC(=O)[C@H](CC(C)C)NC(=O)[C@H](CC(C)C)NC(=O)[C@H](CCCN)NC(=O)[C@H](Cc1c[nH]cn1)NC(=O)[C@H](C)NC(=O)[C@H](CO)NC(=O)[C@H](CC(C)C)NC(=O)[C@H](CCC(N)=O)NC(=O)[C@H](CC)NC(=O)[C@H](CC(C)C)NC(=O)[C@@H](NC(=O)[C@H](CCCN)NC(=O)[C@H](Cc1c[nH]cn1)NC(=O)[C@H](Cc1ccc(OC)cc1)NC(=O)[C@H](CCCCNC(=N)N)NC(=O)[C@H](C)NC(=O)[C@@H](NC(=O)[C@H](Cc1c(F)c(F)c(F)c(F)c1F)NC(=O)[C@@H](NC(=O)[C@H](C)NC(=O)[C@H](CC(=O)O)NC(=O)[C@@H](CCCNC(=N)N)NC(=O)[C@H](Cc1ccc(O)cc1)NC(=O)CCCCCCCCCCCNC(=O)Cc1ccccc1)[C@@H](C)CC)[C@@H](C)O)C(C)C)[C@@H](C)CC)C(=O)N[C@H](CCCNC(=N)N)C(=O)N[C@@H](CCCCNC(=N)N)C(N)=O` [MIA-602, PhAC-Ada, Tyr D-Arg, Asp, Ala, Ile, 5FPhe, Thr, Ala, Har, Tyr(Me), His, Orn, Val, Leu, Abu, Gin, Leu, Ser, Ala, His, Orn, Leu, Leu, Gin, Asp, Ile, Nle, D-Arg, Har NH2, reference compound] ({PhAc-12Ado}-Y[dR]DAI[Phe(F5)]TA[hArg]Y(Me)H[Orn]VL[Abu]QLSAH[Orn]LLQDI[Nle][dR][hArg]-NH2), the results for the “Tumor Growth %” value in assay [1] and in assay [4] were 450.9% and 582.10%, respectively. The “Lung hydroxyproline (HP) content” value is “did not increase significantly” in assay [2] (day 14, MIA-602 5 μg/day sc, bleomycin IP) and “No significant increase in HP content” in assay [2] (day 28, MIA-602 5 μg/day sc days 1-21, bleomycin IP, compared to naive). Further, the “Infiltrative densities in lungs on micro-CT” value in assay [3] was “less prominent infiltrative densities”.
